The values that follow come from publication PMC12041525, “Mechanistic studies of mycobacterial glycolipid biosynthesis by the mannosyltransferase PimE” (Nature Communications, 2025).

The assay deals with T1, MaPimE (Mycobacteroides abscessus, UniProt A0ABD7HTP3).
T1 construct: gene D2E76_03800; full-length WT, His-tagged, pNYCOMPSC23, E. coli BL21(DE3) pLysS; membrane fraction (kinetics) or DDM-purified in MSP1E3D1/POPC nanodiscs with Fab-E6 (cryo-EM); 46 kDa
The assay can be described thus: cryo-EM structure of the complex, […] Å. Format: binding. The conditions noted are these: nanodisc, Fab-E6 bound; formed from added PPM; only first three prenyl units resolved.

T1 sequence (A0ABD7HTP3 entry or part of it): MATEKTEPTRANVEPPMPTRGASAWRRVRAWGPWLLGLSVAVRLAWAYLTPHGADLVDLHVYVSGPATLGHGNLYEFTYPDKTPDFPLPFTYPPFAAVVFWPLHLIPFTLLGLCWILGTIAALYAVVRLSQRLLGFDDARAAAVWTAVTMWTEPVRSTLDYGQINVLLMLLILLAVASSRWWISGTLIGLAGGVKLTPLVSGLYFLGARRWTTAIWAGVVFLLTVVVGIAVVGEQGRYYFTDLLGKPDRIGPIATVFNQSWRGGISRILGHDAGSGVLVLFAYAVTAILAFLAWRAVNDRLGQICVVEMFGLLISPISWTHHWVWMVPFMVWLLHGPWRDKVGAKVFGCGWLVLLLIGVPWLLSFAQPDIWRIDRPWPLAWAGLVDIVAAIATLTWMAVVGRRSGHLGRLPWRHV

Take `CC(C)=CCC/C(C)=C/CC/C(C)=C\CC/C(C)=C\CC/C(C)=C\CC/C(C)=C\CC/C(C)=C\CC/C(C)=C\CC/C(C)=C\CC/C(C)=C\COP(=O)(O)O` [PP, polyprenyl phosphate]: the “cryo-EM structure of the complex, 3.5 Å” value was “led us to interpret it as the PP portion of the PPM donor”.
